Series [1] has as its system S. aureus DSM 1104 SCV. It counts as cell-based, Staphylococcus aureus. As to conditions: for MIC: S. aureus DSM 1104 SCV, Mueller-Hinton broth, 22 h + 2 h resazurin, 37 °C, 5% CO2, three parallels.
Description: For the determination of MIC, the standard broth microdilution procedure[45] was used with a slight modification[29]. Since the peptide stock solutions were prepared in 50% ethanol, the first rows of the 96-well microtiter plates were filled with 50 µl of 2 × concentrated Mueller-Hinton broth to reestablish the normal broth concentration after the addition of 50 µl peptide solutions. The MIC was determined as the lowest concentration that inhibited bacterial growth, judging from bacterial respiration in three parallels for each antibiotic. After incubation of the plates for 22 hours, the redox indicator resazurin (Sigma-Aldrich) was added to the wells (20 µl, 80 µM). The plates were incubated another 2 hours at 37 °C and 5% CO2. Respiration was determined as the difference in the absorption at 570 nm to 600 nm, using a microplate reader FLASHScan 550 (Analytik Jena).
The test system of a further series is S. aureus MRSA538 SCV. Conditions: Mueller-Hinton broth, 22 h + 2 h resazurin, 37 °C, 5% CO2, three parallels. The method, then:
(§1) For the determination of MIC, the standard broth microdilution procedure[45] was used with a slight modification. Since the peptide stock solutions were prepared in 50% ethanol, the first rows of the 96-well microtiter plates were filled with 50 µl of 2 × concentrated Mueller-Hinton broth to reestablish the normal broth concentration after the addition of 50 µl peptide solutions. The MIC was determined as the lowest concentration that inhibited bacterial growth, judging from bacterial respiration in three parallels for each antibiotic. After incubation of the plates for 22 hours, the redox indicator resazurin (Sigma-Aldrich) was added to the wells (20 µl, 80 µM). The plates were incubated another 2 hours at 37 °C and 5% CO2. Respiration was determined as the difference in the absorption at 570 nm to 600 nm, using a microplate reader FLASHScan 550 (Analytik Jena).

In series [2] the test system is S. aureus MRSA8 SCV. Conditions: Mueller-Hinton broth, 22 h + 2 h resazurin, 37 °C, 5% CO2, three parallels. The method, then:
as §1

A further series deals with S. aureus MRSA9 SCV. As to conditions: Mueller-Hinton broth, 22 h + 2 h resazurin, 37 °C, 5% CO2, three parallels. The method, then:
as §1

Series [3] concerns S. aureus DSM 1104. It counts as cell-based, Staphylococcus aureus. Conditions: DSM 1104.
Description: (§5) MBC was determined directly after the MIC evaluation. The 10 µl samples of all 8 dilution rows in the microtiter plates were spotted on square Mueller-Hinton agar plates and incubated overnight at 37 °C and 5% CO2. The MBC was determined as the concentration at which no bacterial colonies were obtained on the two parallel spotted plates.
For series [4], the system named is S. aureus DSM 1104 SCV. It counts as cell-based, Staphylococcus aureus. Conditions: spotted from MIC plates on Mueller-Hinton agar, overnight, no colonies. The method, then: MBC was determined directly after the MIC evaluation.
The next series has as its system S. aureus MRSA3. Type of series: cell-based, Staphylococcus aureus. As to conditions: MRSA3.
Another series concerns S. aureus MRSA4. It counts as cell-based, Staphylococcus aureus. As to conditions: MRSA4.
A further series has as its system S. aureus MRSA9. Type of series: cell-based, Staphylococcus aureus. Conditions: MRSA9.
Series [5] has as its system E. faecalis DSM 2570. It counts as cell-based, Enterococcus faecalis. As to conditions: DSM 2570.
Description: as §5
The subject of a further series is E. faecalis WW4. Type of series: cell-based, Enterococcus faecalis. Conditions: WW4.
The test system of series [6] is E. faecalis WW6. Type of series: cell-based, Enterococcus faecalis. Conditions: WW6.
Description: as §5
For a further series, the system named is E. faecalis TRE1. Type of series: cell-based, Enterococcus faecalis. Conditions: TRE1.
Series [7] deals with E. faecalis TRE2. Type of series: cell-based, Enterococcus faecalis. Conditions: TRE2.
Description: as §5
A further series deals with E. faecalis TRE4. Type of series: cell-based, Enterococcus faecalis. Conditions: TRE4.
The subject of the next series is E. faecium VRE1. Type of series: cell-based, Enterococcus faecium. Conditions: VRE1.
The test system of another series is E. faecium VRE2. Type of series: cell-based, Enterococcus faecium. As to conditions: VRE2.
In series [8] the test system is S. aureus DSM 1104 SCV. It counts as cell-based, Staphylococcus aureus. As to conditions: value in parentheses. The method, then:
(§2) This parameter quantifies the ability of the peptides to prevent biofilm outgrowth.
(§3) After co-incubation with peptides at 37 °C and 5% CO2 without agitation for 24 hours, the planktonic cells were washed, and Crystal violet staining was applied.

Series [9] has as its system E. faecalis DSM 2570. Conditions: DSM 2570, 24 h. The method, then: as §2, §3
Series [10] concerns E. faecalis TRE2. As to conditions: TRE2, 24 h. The method, then: as §2, §3
For series [11], the system named is E. faecalis WW6. As to conditions: WW6, 24 h. The procedure: as §2, §3
Series [12] concerns S. aureus DSM 1104. As to conditions: DSM 1104, 24 h. The method, then: as §2, §3
Series [13] relates to S. aureus MRSA8 SCV. Conditions: value in parentheses. The method, then: as §2, §3
Series [14] deals with human serum albumin (HSA) (Homo sapiens, UniProt P02768). Description: HSA binding, biomimetic chromatography. The procedure: (§4) HPLC was performed on an Agilent 1100 system with an ultraviolet diode array detector. […] Binding measurements were performed using Regis Technologies IAM.PC.DD2 (100 × 4.6 mm), HiChrom Chiralpak-HSA (50 × 3 mm) and HiChrom Chiralpak-AGP (50 × 3 mm) columns. […] Retention times were converted to log k and % binding, using calibration routines described in[72].

In series [15] the test system is α1-acid glycoprotein (AGP). Description: AGP binding, biomimetic chromatography. The method, then: as §4
A further series in a line: physchem. The method, then: as §4
Another series concerns Danio rerio embryos. Description: Acute toxicity in Danio rerio embryos. Type of series: in vivo. Conditions: zebrafish embryos 72 hpf, E3 medium, heart beat; for 1h LD50: 1 hour exposure; for 3h LD50: 3 hours exposure. The procedure:
Experiments were performed in accordance with the relevant OECD testing guidelines[73] and German animal protection standards. Wild type D. rerio embryos were obtained at the European Zebrafish Resource Center (Karlsruhe). Fertilized eggs (6 hpf) were raised in 4 ml of embryonic medium (E3) at 28 °C until 72 hpf (6-well plate, 20 eggs/well). Embryos were transferred into flat-bottom glass vials (E3, 1 ml, 15–20 embryos/vial). Peptides were added as 20 µl aliquots in 10% dimethyl sulfoxide in serial 2-fold dilutions. Toxicity was expressed as the concentration at which 50% of the embryos were visually observed to die (measured at 1 and 3 hours exposure) by identifying the heart beat.

In the next series the test system is human erythrocytes. Nature of the series: Haemolysis assay. It counts as cell-based. Conditions: red cells of human. The method, then:
Haemolytic activity was determined with a serial 2-fold dilution assay. Citrate phosphate dextrose-stabilized human erythrocyte suspensions were obtained from Karlsruhe Municipal Hospital. […] The mixture was pelleted (13 000 rpm, 10 min, 4 °C), and the absorbance of the supernatant was recorded at 540 nm vs. reaction buffer. The extent of haemolysis was related to the action of 0.1% Triton X-100 (100%).

For a further series, the system named is enterococci. It counts as cell-based, Enterococcus faecalis, Enterococcus faecium. Conditions: 22 h.
The next series deals with subtilisin. As to conditions: serine protease isolated from B. subtilis; cited from earlier work. An excerpt: This intrinsic cell-uptake activity has already been explored in eukaryotic cells to specifically target mitochondria with GS derivatives. In the context of prokaryotic cells, together with the ability to bind certain nucleotides and small phosphorylated molecules[29]–[33], GS thus seems to be capable ...

The subject of series [16] is S. aureus DSM 1104 SCV biofilms. Description: Regrowth from pregrown biofilms on hydroxyapatite discs. Type of series: cell-based, Staphylococcus aureus. As to conditions: 30 h on hydroxyapatite discs, 400 µg/ml, 18 h, regrowth 24 h in Todd-Hewitt broth.
Description: To characterize the viability of the biofilm cells, HAD with pregrown biofilms were exposed for 18 hours to supra-MBIC90 concentrations of the AMP, and - after washing - were placed into fresh TH broth. This procedure serves to determine possible planktonic regrowth from the cells that survived the treatment.
Biofilms were grown on standardized hydroxyapatite discs (3D Biotek). The discs were placed in 24-well microtiter plates and inoculated with a cell suspension from the overnight stationary culture, grown in Todd-Hewitt broth and diluted to OD550 = 0.2. After 30 hours of growth at 37 °C without agitation, the discs were placed for 18 hours in solutions containing 400 µg/ml of peptides, dissolved in 10% dimethyl sulfoxide and 150 mM sodium phosphate buffer (pH 7.2). For the control experiments and conventional antibiotics, pure sodium phosphate buffer was used. After the treatment, discs were washed with sodium phosphate buffer, placed into 1 ml of Todd-Hewitt broth and incubated at 37 °C with agitation at 200 rpm for 24 hours.

Where a SMILES comes first, the peptide text is derived from it. Where no end group is shown, it is not given here. [ ]: non-standard residue; d: D form. Orn = NCCC[C@H](N)C(=O)O

human serum albumin (HSA), sequence (P02768 25-609): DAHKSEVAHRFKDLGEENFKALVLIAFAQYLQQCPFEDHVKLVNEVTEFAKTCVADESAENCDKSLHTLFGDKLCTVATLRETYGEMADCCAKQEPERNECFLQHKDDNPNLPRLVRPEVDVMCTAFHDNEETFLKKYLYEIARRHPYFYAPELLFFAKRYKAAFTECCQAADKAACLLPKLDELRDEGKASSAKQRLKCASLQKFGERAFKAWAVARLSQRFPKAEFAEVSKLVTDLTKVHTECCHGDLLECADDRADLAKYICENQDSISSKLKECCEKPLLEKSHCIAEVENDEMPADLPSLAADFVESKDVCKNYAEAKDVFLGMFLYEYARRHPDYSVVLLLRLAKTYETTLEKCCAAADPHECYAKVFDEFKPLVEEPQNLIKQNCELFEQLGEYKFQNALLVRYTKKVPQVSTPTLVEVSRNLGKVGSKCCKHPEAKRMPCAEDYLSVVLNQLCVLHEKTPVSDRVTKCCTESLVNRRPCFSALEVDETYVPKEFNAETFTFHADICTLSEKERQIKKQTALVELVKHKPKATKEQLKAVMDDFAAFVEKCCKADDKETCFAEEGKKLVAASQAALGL
Description for E. faecalis TRE1: as §5
Description for E. faecalis TRE4: as §5
Description for E. faecalis WW4: as §5
Description for E. faecium VRE1: as §5
Description for E. faecium VRE2: as §5
Description for S. aureus MRSA3: as §5
Description for S. aureus MRSA4: as §5

As to `CC(C)C[C@@H]1NC(=O)[C@H](CCCN)NC(=O)[C@H](C(C)C)NC(=O)[C@@H]2CCCN2C(=O)[C@@H](Cc2ccccc2)NC(=O)[C@H](CC(C)C)NC(=O)[C@H](CCCN)NC(=O)[C@H](C(C)C)NC(=O)[C@@H]2CCCN2C(=O)[C@@H](Cc2ccccc2)NC1=O` [GS, gramicidin S] (cyclo(V[Orn]L[dF]PV[Orn]L[dF]P)), the MIC in the series with S. aureus DSM 1104 SCV [1] is listed as 4 (4) µg/ml; with S. aureus MRSA538 SCV, 8 (7) µg/ml; in the series with S. aureus MRSA8 SCV [2] it was 4 (4) µg/ml; in the series on S. aureus MRSA9 SCV it was 4 (4) µg/ml. For the same molecule, the MBC in the series with S. aureus DSM 1104 [3] is 8 (7) µg/ml; against S. aureus DSM 1104 SCV [4], 8 (7) µg/ml; in the series on S. aureus MRSA3, 16 (14) µg/ml; against S. aureus MRSA4, 16 (14) µg/ml; against S. aureus MRSA9, 16 (14) µg/ml; in the series with E. faecalis DSM 2570 [5], 8 (7) µg/ml. Also, the MBC in the series with E. faecalis WW4 is on record as 16 (14) µg/ml; against E. faecalis WW6 [6], 16 (14) µg/ml; in the series with E. faecalis TRE1 it was 16 (14) µg/ml; against E. faecalis TRE2 [7], 16 (14) µg/ml; against E. faecalis TRE4, 8 (7) µg/ml; against E. faecium VRE1 it was 8 (7) µg/ml. The MBC in the series on E. faecium VRE2 was 8 (7) µg/ml. For the same molecule, the MBIC90 with S. aureus DSM 1104 SCV [8] is on record as 14 µM; in the series on E. faecalis DSM 2570 [9], 7 µM; in the series with E. faecalis TRE2 [10] it was 14 µM; with E. faecalis WW6 [11], 14 µM; with S. aureus DSM 1104 [12] it was 4 µM; with S. aureus MRSA8 SCV [13], 4 µM. Further, the “Bound HSA” value in [14] (Chiralpak-HSA column, 50 mM ammonium acetate pH 7.4, 0–35% 2-propanol gradient, calibrated retention times, UV) was found to be 97.45%. The “log k HSA” value in series [14] (Chiralpak-HSA column, pH 7.4, 0–35% 2-propanol gradient, value in parentheses) came out at 1.44. Besides, the “Bound AGP” value in series [15] (Chiralpak-AGP column, 50 mM ammonium acetate pH 7.4, 0–35% 2-propanol gradient, calibrated retention times, UV) is recorded as 92.92%. In addition, the “log k AGP” value in series [15] (Chiralpak-AGP column, pH 7.4, 0–35% 2-propanol gradient, value in parentheses) was 1.06. Further, the chromatographic logD in “physchem” (pH 2.6) amounted to 1.5; in the series “physchem” (pH 7.4), 3.51; in the series “physchem” (pH 10.5), 7.52. Also, the “1h LD50” value in the series on Danio rerio embryos stood at 8 µg/mL. In addition, the “3h LD50” value in the series on Danio rerio embryos worked out at 5 µg/mL. Moreover, the “Haemolysis at 5 μM” value in the series on human erythrocytes came out at 7%. The “Haemolysis at 10 μM” value in the series on human erythrocytes is 54%. The MIC against enterococci result with enterococci is reported as “approximately 8 µg/ml”. In addition, the Degradation by protease result with subtilisin is given as “effective in degrading”.
With `Cc1onc(-c2ccccc2)c1C(=O)N[C@@H]1C(=O)N2[C@@H]1SC(C)(C)[C@@H]2C(=O)O` [OXA, oxacillin], the “Concentration effective against the planktonic cells (SI Table S1)” value in the series with S. aureus DSM 1104 SCV [1] (DSM 1104 SCV planktonic cells, standard broth microdilution) is 0.25 µg/mL. The “Biofilm regrowth after treatment” value in series [16] was “tolerant”.
With FVQWFSKFLGRIL-NH2 [TL, temporin L], the MIC in the series on S. aureus DSM 1104 SCV [1], with S. aureus MRSA8 SCV [2] and with S. aureus MRSA9 SCV was 8 (5) µg/ml throughout. Besides, the MBC with S. aureus DSM 1104 [3] is reported as 16 (10) µg/ml; against S. aureus MRSA3 it was 32 (20) µg/ml; in the series on S. aureus MRSA4 it was 32 (20) µg/ml; in the series on S. aureus MRSA9, 32 (20) µg/ml; with E. faecalis DSM 2570 [5], 16 (10) µg/ml; against E. faecalis WW4 it was 32 (20) µg/ml. For the same molecule, the MBC against E. faecalis WW6 [6] was 32 (20) µg/ml; in the series with E. faecalis TRE1, 32 (20) µg/ml; against E. faecalis TRE2 [7], 32 (20) µg/ml; against E. faecalis TRE4, 32 (20) µg/ml; with E. faecium VRE1, 16 (10) µg/ml; in the series on E. faecium VRE2 it was 16 (10) µg/ml. Further, the MBIC90 in the series on S. aureus DSM 1104 SCV [8] was found to be 20 µM; in the series on E. faecalis DSM 2570 [9] it was 39 µM; in the series with E. faecalis TRE2 [10], 78 µM; with E. faecalis WW6 [11], 78 µM; in the series on S. aureus DSM 1104 [12], 5 µM; in the series with S. aureus MRSA8 SCV [13] it was 5 µM. For the same molecule, the “log k HSA” value in series [14] (pH 7.4) turned out to be 1.68. Further, the “log k AGP” value in series [15] (pH 7.4) is given as 1.23. The chromatographic logD in the series “physchem” (pH 2.6) was 0.65; in “physchem” (pH 7.4), 2.92; in “physchem” (pH 10.5), 4.95. Also, the “1h LD50” value with Danio rerio embryos is 7 µg/mL. The “3h LD50” value in the series on Danio rerio embryos is 7 µg/mL. In addition, the “Haemolysis at 5 μM” value in the series on human erythrocytes amounted to 57%. Moreover, the “Haemolysis at 10 μM” value in the series with human erythrocytes came to 99%.
